Assay results: ChEMBL document CHEMBL3991601, “The target landscape of clinical kinase drugs” (Science, 2017)
Active and inactive are the calls of the source. Rule as the data show it, for most assays here: actives have a measured Kd and inactives only a lower limit.

Key:
[1] = target: BMP-2-inducible protein kinase (Homo sapiens, UniProt Q9NSY1)
[2] = target: T1, Bone morphogenetic protein receptor type-2 (Homo sapiens, UniProt Q13873)
T1 sequence (Q13873 whole entry): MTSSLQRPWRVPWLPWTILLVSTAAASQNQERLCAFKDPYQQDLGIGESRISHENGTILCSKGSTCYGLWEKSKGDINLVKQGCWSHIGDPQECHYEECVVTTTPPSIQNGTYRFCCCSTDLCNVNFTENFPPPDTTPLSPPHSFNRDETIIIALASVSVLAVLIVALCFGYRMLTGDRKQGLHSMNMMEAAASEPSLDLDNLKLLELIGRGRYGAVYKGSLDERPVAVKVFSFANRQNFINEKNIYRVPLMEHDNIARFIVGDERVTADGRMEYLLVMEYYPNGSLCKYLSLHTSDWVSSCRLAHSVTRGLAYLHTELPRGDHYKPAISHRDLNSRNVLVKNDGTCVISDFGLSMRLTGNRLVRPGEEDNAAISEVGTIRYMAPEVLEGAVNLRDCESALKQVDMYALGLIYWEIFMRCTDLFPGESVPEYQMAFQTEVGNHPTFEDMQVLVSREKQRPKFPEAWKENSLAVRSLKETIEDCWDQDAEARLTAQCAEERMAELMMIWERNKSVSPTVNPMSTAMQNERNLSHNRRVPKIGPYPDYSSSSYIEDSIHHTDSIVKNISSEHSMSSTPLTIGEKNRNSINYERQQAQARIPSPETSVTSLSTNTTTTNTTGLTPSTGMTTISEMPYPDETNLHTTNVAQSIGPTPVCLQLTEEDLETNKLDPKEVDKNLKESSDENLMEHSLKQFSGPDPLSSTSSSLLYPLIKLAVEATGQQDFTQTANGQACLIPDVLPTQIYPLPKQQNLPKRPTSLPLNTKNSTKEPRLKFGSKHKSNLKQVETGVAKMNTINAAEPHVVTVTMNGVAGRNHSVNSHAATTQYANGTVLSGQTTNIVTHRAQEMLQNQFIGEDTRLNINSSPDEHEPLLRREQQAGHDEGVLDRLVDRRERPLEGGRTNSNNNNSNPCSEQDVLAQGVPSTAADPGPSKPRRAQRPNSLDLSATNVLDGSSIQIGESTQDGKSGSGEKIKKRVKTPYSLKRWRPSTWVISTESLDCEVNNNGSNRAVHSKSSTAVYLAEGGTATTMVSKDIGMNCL

[3] = target: Dual specificity protein kinase CLK1 (Homo sapiens, UniProt P49759)
[4] = target: Serine/threonine-protein kinase/endoribonuclease IRE1 (Homo sapiens, UniProt O75460)
Glycine--tRNA ligase = target: T2, Glycine--tRNA ligase (Homo sapiens, UniProt P41250)
T2 sequence (P41250 whole entry): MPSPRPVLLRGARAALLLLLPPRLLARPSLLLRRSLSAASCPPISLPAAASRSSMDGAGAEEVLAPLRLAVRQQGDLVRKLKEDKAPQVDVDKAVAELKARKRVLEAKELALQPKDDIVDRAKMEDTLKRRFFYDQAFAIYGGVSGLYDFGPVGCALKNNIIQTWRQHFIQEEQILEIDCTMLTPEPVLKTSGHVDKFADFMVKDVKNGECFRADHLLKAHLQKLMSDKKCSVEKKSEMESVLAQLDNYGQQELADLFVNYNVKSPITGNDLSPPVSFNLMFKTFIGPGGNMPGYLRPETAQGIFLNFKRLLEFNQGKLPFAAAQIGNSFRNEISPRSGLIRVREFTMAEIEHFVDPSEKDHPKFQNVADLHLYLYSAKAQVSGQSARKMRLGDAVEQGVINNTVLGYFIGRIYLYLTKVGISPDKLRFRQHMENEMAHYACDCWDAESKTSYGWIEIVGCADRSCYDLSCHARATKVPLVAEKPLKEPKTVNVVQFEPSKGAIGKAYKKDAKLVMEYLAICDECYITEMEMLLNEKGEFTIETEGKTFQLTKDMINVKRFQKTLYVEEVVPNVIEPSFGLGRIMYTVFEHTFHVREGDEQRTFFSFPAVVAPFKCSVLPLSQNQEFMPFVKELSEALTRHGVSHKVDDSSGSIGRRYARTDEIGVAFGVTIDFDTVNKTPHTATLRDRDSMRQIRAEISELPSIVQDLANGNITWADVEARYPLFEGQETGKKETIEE

Insulin receptor = Insulin receptor (Homo sapiens, UniProt P06213)
[5] = target: Tyrosine-protein kinase Lyn (Homo sapiens, UniProt P07948)
[6] = target: T3, Ribosyldihydronicotinamide dehydrogenase [quinone] (Homo sapiens, UniProt P16083)
T3 sequence (P16083 whole entry): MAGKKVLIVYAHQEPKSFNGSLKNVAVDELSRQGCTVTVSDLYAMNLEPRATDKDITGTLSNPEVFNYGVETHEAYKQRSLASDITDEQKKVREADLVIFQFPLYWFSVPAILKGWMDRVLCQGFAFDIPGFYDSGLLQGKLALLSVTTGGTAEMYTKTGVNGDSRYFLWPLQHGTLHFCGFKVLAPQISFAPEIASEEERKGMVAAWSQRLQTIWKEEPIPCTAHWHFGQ

[7] = target: T4, STE20-related kinase adapter protein alpha (Homo sapiens, UniProt Q7RTN6)
T4 sequence (Q7RTN6 whole entry): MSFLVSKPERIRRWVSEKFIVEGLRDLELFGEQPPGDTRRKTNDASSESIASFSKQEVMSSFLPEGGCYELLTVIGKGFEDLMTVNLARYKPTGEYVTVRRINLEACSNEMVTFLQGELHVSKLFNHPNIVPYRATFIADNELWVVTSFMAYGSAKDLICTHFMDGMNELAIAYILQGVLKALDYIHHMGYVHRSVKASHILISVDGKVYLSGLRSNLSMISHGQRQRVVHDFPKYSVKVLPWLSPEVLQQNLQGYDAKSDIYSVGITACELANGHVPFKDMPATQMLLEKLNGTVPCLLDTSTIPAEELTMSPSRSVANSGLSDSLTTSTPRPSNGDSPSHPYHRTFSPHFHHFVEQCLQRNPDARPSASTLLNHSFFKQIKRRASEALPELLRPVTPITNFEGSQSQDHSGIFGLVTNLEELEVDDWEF
Also: in the data inactive means no Kd found up to 30 µM.

Chain of Serine/threonine-protein kinase/endoribonuclease IRE1 (O75460 whole entry): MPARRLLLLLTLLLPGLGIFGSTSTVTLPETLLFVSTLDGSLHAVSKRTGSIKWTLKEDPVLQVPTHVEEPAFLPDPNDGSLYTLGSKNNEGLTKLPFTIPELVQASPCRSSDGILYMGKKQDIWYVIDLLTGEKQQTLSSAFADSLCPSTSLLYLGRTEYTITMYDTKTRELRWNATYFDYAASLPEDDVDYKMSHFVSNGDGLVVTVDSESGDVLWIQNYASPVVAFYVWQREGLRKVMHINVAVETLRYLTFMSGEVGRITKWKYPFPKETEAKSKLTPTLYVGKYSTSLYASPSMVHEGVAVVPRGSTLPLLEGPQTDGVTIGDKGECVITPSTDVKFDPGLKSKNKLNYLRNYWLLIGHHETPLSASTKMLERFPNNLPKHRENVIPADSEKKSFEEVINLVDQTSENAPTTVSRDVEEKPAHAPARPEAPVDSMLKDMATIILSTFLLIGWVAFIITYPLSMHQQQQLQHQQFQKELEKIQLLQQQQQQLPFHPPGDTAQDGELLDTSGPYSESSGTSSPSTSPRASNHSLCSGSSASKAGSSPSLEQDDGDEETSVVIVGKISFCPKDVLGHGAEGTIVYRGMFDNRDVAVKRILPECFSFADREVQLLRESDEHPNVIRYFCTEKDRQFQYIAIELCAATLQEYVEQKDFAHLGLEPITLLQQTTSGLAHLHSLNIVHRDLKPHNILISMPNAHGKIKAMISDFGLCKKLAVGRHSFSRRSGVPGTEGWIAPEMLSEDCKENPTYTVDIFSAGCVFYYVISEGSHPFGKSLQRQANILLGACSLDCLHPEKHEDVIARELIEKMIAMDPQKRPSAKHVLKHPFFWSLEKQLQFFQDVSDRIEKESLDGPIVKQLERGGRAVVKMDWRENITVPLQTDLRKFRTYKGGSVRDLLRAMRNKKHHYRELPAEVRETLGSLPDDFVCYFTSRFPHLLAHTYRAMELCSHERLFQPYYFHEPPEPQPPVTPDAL
Chain of Insulin receptor (P06213 28-758 limits assumed): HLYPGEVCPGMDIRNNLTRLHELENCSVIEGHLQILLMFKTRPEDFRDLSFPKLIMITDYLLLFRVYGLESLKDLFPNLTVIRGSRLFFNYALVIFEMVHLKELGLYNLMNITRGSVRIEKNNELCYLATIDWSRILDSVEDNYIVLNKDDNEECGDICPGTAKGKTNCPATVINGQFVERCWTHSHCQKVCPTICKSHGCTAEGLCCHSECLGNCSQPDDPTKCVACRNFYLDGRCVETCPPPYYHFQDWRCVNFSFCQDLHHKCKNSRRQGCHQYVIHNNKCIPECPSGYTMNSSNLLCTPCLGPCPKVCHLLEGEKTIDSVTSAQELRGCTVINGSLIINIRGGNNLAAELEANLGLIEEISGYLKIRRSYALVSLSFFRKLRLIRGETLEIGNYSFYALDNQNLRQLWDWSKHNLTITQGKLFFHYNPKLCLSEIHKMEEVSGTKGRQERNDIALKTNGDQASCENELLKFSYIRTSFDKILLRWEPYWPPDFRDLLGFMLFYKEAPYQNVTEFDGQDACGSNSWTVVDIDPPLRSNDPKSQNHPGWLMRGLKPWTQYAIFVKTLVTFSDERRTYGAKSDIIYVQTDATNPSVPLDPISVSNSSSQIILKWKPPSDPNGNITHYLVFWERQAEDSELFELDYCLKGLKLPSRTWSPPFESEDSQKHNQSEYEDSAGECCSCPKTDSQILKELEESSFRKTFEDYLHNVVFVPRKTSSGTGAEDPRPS
Chain of Insulin receptor (P06213 763-1382 limits assumed): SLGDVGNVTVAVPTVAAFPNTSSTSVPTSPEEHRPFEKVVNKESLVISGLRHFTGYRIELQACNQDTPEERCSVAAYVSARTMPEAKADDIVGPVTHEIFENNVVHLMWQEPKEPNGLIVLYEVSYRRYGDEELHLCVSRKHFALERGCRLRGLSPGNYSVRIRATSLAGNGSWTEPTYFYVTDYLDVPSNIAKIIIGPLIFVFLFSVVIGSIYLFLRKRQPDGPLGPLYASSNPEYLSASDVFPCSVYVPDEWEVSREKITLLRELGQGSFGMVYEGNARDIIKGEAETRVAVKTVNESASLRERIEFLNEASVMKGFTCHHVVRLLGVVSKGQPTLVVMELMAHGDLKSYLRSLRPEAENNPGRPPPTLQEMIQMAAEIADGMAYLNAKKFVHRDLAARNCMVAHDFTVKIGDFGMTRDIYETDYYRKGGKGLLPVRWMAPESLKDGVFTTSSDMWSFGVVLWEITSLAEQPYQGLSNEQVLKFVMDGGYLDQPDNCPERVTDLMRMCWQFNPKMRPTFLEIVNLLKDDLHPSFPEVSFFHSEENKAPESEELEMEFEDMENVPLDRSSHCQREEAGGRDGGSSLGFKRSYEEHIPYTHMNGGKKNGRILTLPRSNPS
Chain of BMP-2-inducible protein kinase (Q9NSY1 whole entry): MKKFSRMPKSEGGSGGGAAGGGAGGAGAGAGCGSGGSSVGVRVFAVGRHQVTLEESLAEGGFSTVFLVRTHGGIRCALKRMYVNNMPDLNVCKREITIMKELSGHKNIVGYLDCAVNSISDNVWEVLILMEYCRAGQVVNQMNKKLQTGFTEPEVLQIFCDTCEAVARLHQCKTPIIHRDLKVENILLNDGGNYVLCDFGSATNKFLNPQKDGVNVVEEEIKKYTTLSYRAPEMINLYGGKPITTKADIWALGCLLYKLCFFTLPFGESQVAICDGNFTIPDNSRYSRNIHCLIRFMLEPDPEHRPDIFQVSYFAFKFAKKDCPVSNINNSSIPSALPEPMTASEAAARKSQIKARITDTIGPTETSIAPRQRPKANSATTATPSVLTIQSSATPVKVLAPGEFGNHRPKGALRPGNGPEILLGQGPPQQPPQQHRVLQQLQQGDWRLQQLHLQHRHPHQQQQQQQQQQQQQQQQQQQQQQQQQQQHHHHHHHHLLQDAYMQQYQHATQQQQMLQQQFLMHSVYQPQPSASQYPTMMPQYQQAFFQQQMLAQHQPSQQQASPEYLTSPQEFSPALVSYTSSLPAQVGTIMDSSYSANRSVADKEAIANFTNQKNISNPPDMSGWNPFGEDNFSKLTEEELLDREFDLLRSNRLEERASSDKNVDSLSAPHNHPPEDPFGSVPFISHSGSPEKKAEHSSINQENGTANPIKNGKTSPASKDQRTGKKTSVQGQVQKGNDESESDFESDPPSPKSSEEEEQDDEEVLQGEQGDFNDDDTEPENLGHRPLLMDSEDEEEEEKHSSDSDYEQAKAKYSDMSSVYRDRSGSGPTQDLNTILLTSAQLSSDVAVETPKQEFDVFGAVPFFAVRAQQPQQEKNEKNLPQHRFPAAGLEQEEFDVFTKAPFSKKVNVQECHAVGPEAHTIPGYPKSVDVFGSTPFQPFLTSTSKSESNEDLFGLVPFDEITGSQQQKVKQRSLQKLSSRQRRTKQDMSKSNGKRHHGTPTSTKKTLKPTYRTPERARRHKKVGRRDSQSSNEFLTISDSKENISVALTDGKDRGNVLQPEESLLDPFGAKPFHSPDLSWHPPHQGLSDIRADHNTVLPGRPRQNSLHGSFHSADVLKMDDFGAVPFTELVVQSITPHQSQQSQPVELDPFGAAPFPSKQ
Chain of Dual specificity protein kinase CLK1 (P49759 whole entry): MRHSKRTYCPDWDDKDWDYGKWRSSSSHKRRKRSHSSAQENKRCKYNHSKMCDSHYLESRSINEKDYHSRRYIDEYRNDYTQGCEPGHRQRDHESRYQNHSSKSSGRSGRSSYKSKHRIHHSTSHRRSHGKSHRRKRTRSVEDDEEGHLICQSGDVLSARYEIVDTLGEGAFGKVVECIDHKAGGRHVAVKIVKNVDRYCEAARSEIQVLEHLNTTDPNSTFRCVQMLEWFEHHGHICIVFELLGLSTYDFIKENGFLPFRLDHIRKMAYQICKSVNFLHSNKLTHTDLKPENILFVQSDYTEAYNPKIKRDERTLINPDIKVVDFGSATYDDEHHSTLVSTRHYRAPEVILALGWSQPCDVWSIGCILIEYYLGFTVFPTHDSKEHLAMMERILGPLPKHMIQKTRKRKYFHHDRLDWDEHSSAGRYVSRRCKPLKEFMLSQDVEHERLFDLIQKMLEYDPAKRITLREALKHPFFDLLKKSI
Chain of Tyrosine-protein kinase Lyn (P07948 whole entry): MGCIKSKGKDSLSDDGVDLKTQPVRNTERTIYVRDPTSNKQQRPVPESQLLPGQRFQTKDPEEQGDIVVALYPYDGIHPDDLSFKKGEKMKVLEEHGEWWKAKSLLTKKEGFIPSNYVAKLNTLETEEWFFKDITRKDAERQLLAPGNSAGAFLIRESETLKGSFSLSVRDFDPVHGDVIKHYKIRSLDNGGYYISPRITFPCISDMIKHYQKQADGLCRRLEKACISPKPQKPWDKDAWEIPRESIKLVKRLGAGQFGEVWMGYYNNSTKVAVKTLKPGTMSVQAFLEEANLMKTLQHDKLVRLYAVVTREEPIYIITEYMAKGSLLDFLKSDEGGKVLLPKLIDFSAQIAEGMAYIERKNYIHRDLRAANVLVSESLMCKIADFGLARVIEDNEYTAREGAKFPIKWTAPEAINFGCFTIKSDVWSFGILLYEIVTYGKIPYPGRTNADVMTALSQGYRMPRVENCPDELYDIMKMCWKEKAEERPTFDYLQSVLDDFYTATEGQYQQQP

| Kd [1] | Kd [2] | Kd [3] | Kd [4] | Kd (Glycine--tRNA ligase) | Kd (Insulin receptor) | Kd [5] | Kd [6] | Kd [7] | SMILES |
| --- | --- | --- | --- | --- | --- | --- | --- | --- | --- |
| > 30 µM (inactive) | > 30 µM (inactive) | > 30 µM (inactive) | > 30 µM (inactive) | > 30 µM (inactive) | > 30 µM (inactive) | > 30 µM (inactive) | > 30 µM (inactive) | > 30 µM (inactive) | Cc1ccc(S(=O)(=O)Nc2nc3ccccc3nc2Nc2ccc3nsnc3c2)cc1 |
| > 30 µM (inactive) | > 30 µM (inactive) | > 30 µM (inactive) | 2.24 µM | > 30 µM (inactive) | > 30 µM (inactive) | > 30 µM (inactive) | 1.52 µM (active) | > 30 µM (inactive) | COc1cc2nccc(Oc3ccc(NC(=O)NC4CC4)c(Cl)c3)c2cc1C(N)=O [LENVATINIB] |
| > 30 µM (inactive) | > 30 µM (inactive) | > 30 µM (inactive) | > 30 µM (inactive) | > 30 µM (inactive) | > 30 µM (inactive) | > 30 µM (inactive) | > 30 µM (inactive) | 0.672 µM | CNC(=O)c1ccc(C)c(-n2c(C)cc(OCc3ccc(F)cc3F)c(Br)c2=O)c1 [PH-797804] |
| > 30 µM (inactive) | > 30 µM (inactive) | 2.11 µM (active) | > 30 µM (inactive) | > 30 µM (inactive) | > 30 µM (inactive) | > 30 µM (inactive) | > 30 µM (inactive) | > 30 µM (inactive) | CNC(=O)c1cc(Oc2ccc(NC(=O)Nc3ccc(Cl)c(C(F)(F)F)c3)c(F)c2)ccn1 [REGORAFENIB] |
| > 30 µM (inactive) | > 30 µM (inactive) | > 30 µM (inactive) | > 30 µM (inactive) | > 30 µM (inactive) | > 30 µM (inactive) | 2.02 µM (active) | > 30 µM (inactive) | > 30 µM (inactive) | COc1cc2nccc(Oc3ccc(NC(=O)Nc4cc(C)on4)c(Cl)c3)c2cc1OC [TIVOZANIB] |
| > 30 µM (inactive) | > 30 µM (inactive) | > 30 µM (inactive) | > 30 µM (inactive) | > 30 µM (inactive) | > 30 µM (inactive) | 0.239 µM (active) | 6.87 µM | > 30 µM (inactive) | Cc1ccc(NC(=O)c2ccc(CN3CC[C@H](N(C)C)C3)c(C(F)(F)F)c2)cc1Nc1nccc(-c2cncnc2)n1 [BAFETINIB] |
| > 30 µM (inactive) | > 30 µM (inactive) | > 30 µM (inactive) | > 30 µM (inactive) | > 30 µM (inactive) | > 30 µM (inactive) | > 30 µM (inactive) | > 30 µM (inactive) | > 30 µM (inactive) | Cn1cc(-c2ccc(F)c(C(F)(F)F)c2)nc1C1CCN(c2ncnc3[nH]ncc23)CC1 [LY-2584702] |
| 0.402 µM (active) | > 30 µM (inactive) | 0.025 µM (active) | > 30 µM (inactive) | > 30 µM (inactive) | > 30 µM (inactive) | > 30 µM (inactive) | > 30 µM (inactive) | > 30 µM (inactive) | O=C1NC(=O)/C(=C/c2ccc3nccc(-c4ccncc4)c3c2)S1 [GSK-1059615] |
| 0.02 µM (active) | > 30 µM (inactive) | > 30 µM (inactive) | > 30 µM (inactive) | > 30 µM (inactive) | > 30 µM (inactive) | > 30 µM (inactive) | > 30 µM (inactive) | > 30 µM (inactive) | O=C(Nc1ccc(-c2ccnc(Nc3ccc(N4CCOCC4)cc3)n2)cc1)C1CCCN1 (centres undefined) [XL-019] |
| > 30 µM (inactive) | > 30 µM (inactive) | > 30 µM (inactive) | > 30 µM (inactive) | > 30 µM (inactive) | > 30 µM (inactive) | > 30 µM (inactive) | > 30 µM (inactive) | > 30 µM (inactive) | COc1cc(CCc2cc(NC(=O)c3ccc(N4C[C@@H](C)N[C@@H](C)C4)cc3)n[nH]2)cc(OC)c1 [AZD-4547] |
| > 30 µM (inactive) | > 30 µM (inactive) | > 30 µM (inactive) | > 30 µM (inactive) | > 30 µM (inactive) | > 30 µM (inactive) | > 30 µM (inactive) | 15.2 µM (active) | > 30 µM (inactive) | COc1cc(OC)c(/C=C/S(=O)(=O)Cc2ccc(OC)c(NCC(=O)O)c2)c(OC)c1 [RIGOSERTIB] |
| 8.53 µM (active) | > 30 µM (inactive) | > 30 µM (inactive) | > 30 µM (inactive) | > 30 µM (inactive) | > 30 µM (inactive) | > 30 µM (inactive) | > 30 µM (inactive) | > 30 µM (inactive) | CN1CCC(CNc2ccc3ncc(-c4cccc(OC(F)(F)F)c4)n3n2)CC1 [SGI-1776] |
| > 30 µM (inactive) | > 30 µM (inactive) | > 30 µM (inactive) | > 30 µM (inactive) | > 30 µM (inactive) | > 30 µM (inactive) | > 30 µM (inactive) | > 30 µM (inactive) | > 30 µM (inactive) | Cc1c(F)cc(C(=O)NC2CC2)cc1-c1ccc(C(=O)NCC(C)(C)C)cn1 [LOSMAPIMOD] |
| > 30 µM (inactive) | > 30 µM (inactive) | > 30 µM (inactive) | > 30 µM (inactive) | > 30 µM (inactive) | > 30 µM (inactive) | > 30 µM (inactive) | > 30 µM (inactive) | > 30 µM (inactive) | CC[C@@H]1C(=O)N(C)c2cnc(Nc3ccc(C(=O)N[C@H]4CC[C@H](N5CCN(CC6CC6)CC5)CC4)cc3OC)nc2N1C(C)C [VOLASERTIB] |

| SMILES | Kd [1] | Kd [2] | Kd [3] | Kd [4] | Kd (Glycine--tRNA ligase) | Kd (Insulin receptor) | Kd [5] | Kd [6] | Kd [7] |
| --- | --- | --- | --- | --- | --- | --- | --- | --- | --- |
| CN1CCC(COc2cnc(-c3cccc(Cn4nc(-c5cccc(C#N)c5)ccc4=O)c3)nc2)CC1 [TEPOTINIB] | > 30 µM (inactive) | > 30 µM (inactive) | > 30 µM (inactive) | > 30 µM (inactive) | > 30 µM (inactive) | > 30 µM (inactive) | > 30 µM (inactive) | 0.875 µM (active) | > 30 µM (inactive) |
| O=C(c1ccc(F)c(F)c1Nc1ccc(I)cc1F)N1CC(O)([C@@H]2CCCCN2)C1 [COBIMETINIB] | > 30 µM (inactive) | > 30 µM (inactive) | > 30 µM (inactive) | > 30 µM (inactive) | > 30 µM (inactive) | > 30 µM (inactive) | > 30 µM (inactive) | > 30 µM (inactive) | > 30 µM (inactive) |
